Test results published in paper PMC10590756, “Glutarate regulates T cell metabolism and anti-tumour immunity” (Nature Metabolism, 2023).

Experiments:
CD8^+ T cells = assay: Seahorse analysis of ECAR and OCR (GST, MST, fuel flex test); format: cell-based, human
Procedure: To explore further the metabolic consequences of this observed glutarate-induced reduction in PDHc activity, we performed a glycolysis stress test (GST). Acute effects were determined by treating CD8^+ T cells with DEG for 30 min while plated in the Seahorse XF Analyzer. Chronic effects were determined by performing a standard GST in CD8^+ T cells that had been cultured with DEG for 7 days before assay.
To better understand the consequences of providing glutarate as a fuel for mitochondrial oxidation, we measured cellular oxygen consumption while inhibiting, in different combinations, fatty acid, glucose and glutamine oxidation, the three main fuel sources for mitochondrial oxidation (Extended Data Fig. 4i). This was achieved via injection of etomoxir, UK5099 and Bis-2-(5-phenylacetamido-1,3,4-thiadiazol-2-yl)ethyl sulphide (BPTES), respectively, in cells plated in a Seahorse XF Analyzer.
A Seahorse XFe bioanalyzer was used to measure the OCR and ECAR. A total of 1.5 × 10^5 CD8^+ T cells per well were spun onto poly-D-lysine-coated (catalogue no. P7280, Sigma-Aldrich) Seahorse plates and preincubated at 37 °C for a minimum of 30 min in the absence of CO2 in Seahorse XF RPMI medium, pH 7.4 (10376-100, Agilent), supplemented with 10 mM glucose (catalogue no. A2494001, Thermo Fisher Scientific) and 2 mM glutamine (catalogue no. 25030081, Thermo Fisher Scientific). A minimum of five technical replicates per biological replicate were used. For the MST and GST, OCR and ECAR were measured under basal conditions and after the addition of the following: 750 µM DEG (catalogue no. QB-1473, Combi-block), 0.05% DMSO, 1 μM oligomycin (catalogue no. 75351, Sigma-Aldrich), 1.5 μM FCCP (catalogue no. C2920, Sigma-Aldrich), 100 nM rotenone + 1 μM antimycin A (catalogue nos. R8875 and A8674, Sigma-Aldrich), 10 mM glucose and 50 mM 2-DG (catalogue no. B1048-100, BioVision) as indicated. To assess mitochondrial fuel use, OCR was measured subsequent to the addition of the following drugs in different combinations as indicated: 3 µM BPTES (catalogue no. SML0601, Sigma-Aldrich), 2 µM UK-5099 (catalogue no. PZ0160, Sigma-Aldrich) and 4 µM etomoxir (catalogue no. E1905, Sigma-Aldrich). Assay parameters were as follows: 3 min mix, no wait, 3 min measurement, repeated 3–5 times at basal and after each addition. Measurements were taken using a 96-well Extracellular Flux Analyzer (Seahorse Bioscience).

human CD8^+ T cells = assay: Isotope tracing of ^13C5-labelled DEG and intracellular glutarate by LC-tandem MS; format: in vitro ADME
Procedure: To affirm that exogenous administration of DEG leads to increased intracellular glutarate levels, we performed isotope tracing of human CD8^+ T cells treated with ^13C5-labelled DEG.
Cells were counted to determine viable cell numbers (Fig. 1f,h,i and Extended Data Fig. g,h,k). A total of 0.5–2 × 10^6 viable cells were collected, washed with cold PBS and metabolic activity was quenched by freezing samples in dry ice and ethanol, and stored at −80 °C. Metabolites were extracted by adding 150 μl ice-cold 1:1 (vol/vol) methanol/water (containing 1 mM N-cyclohexyl-2-aminoethanesulfonic acid (CHES) as an internal standard) to the cell pellets; samples were transferred to a chilled microcentrifuge tube containing 150 μl chloroform and […] (750 μl total in 3:1:1 vol/vol methanol/water/chloroform). Samples were sonicated in a water bath for 8 min at 4 °C, and centrifuged (13,000g) for 10 min at 4 °C. The supernatant containing the extract was transferred to a new tube for evaporation using TurboVap LV (Biotage), resuspended in 3:3:1 (vol/vol/vol) methanol/water/chloroform (350 μl total) to phase-separate polar metabolites from apolar metabolites and centrifuged. The aqueous phase was transferred to a new tube for evaporation using TurboVap LV, washed with 60 μl methanol and dried again. Evaporated extracts were dissolved in 100 µl MeOH–50% water, before injection on the machine. Isotopically labelled glutarates were determined by liquid chromatography (LC)–tandem mass spectrometry (tandem MS) on a Waters ACQUITY UPLC system coupled to a Xevo-TQ-XS mass spectrometer. […] The column was subsequently washed in 75% A for 2.5 min and re-equilibrated at initial conditions for 3 min. MS analyses were performed in multiple reaction monitoring (MRM) mode, with positive electrospray ionization (ESI) from minute 0 – 1.4 and negative electrospray ionization (ESI) from minute 1.4 to minute 4.7. Positive ESI was conducted according to the following parameters: capillary potential 3 kV, source offset 30 V, cone voltage 15 V, source temperature 150 °C, desolvation temperature 600 °C, cone gas flow 150 l h^−1, desolvation gas flow, 1,000 l h^−1, nebulizer 7 bar and collision gas flow 0.17 ml min^−1. Negative ESI was operated under the same conditions but with a capillary potential set to 2 kV and a cone voltage set to 20 V. Acquisition was performed using MRM with the mass transitions and parameters illustrated in Supplementary Table 4. […]
Cells were counted to determine the viable cell numbers (Extended Data Fig. 1i,n). […]
Glutarate was determined by LC–tandem MS on a Waters ACQUITY UPLC system coupled to a Xevo-TQ-S mass spectrometer (Waters). […]

[1] = fuel flex test, 500 µM DEG, 7 days, other fuel sources limited

With `CCOC(=O)CCCC(=O)OCC` [DEG, Diethyl glutarate] the “maximal OCR, cells treated 7 days with DEG” value (CD8^+ T cells; 500 µM DEG, 7 days) was “reduced maximal OCR”, the “basal oxygen consumption rates (OCRs)” value (CD8^+ T cells; 500 µM DEG, acute and chronic, with or without glucose and glutamine) was “either maintained or increased” and the “basal extracellular acidification rate (ECAR)” value (CD8^+ T cells; DEG 30 min (acute) or 7 days (chronic)) was “increases”. For the same compound, the “glycolytic rate (GST), acute exposure” value (CD8^+ T cells; DEG 30 min in the Seahorse XF Analyzer) was “increased glycolytic rate”, the “effect of FCCP on OCR (MST), cells treated acutely with DEG” value (CD8^+ T cells; acute DEG) was “did not have an effect” and the “glycolytic rate (GST), chronic exposure” value (CD8^+ T cells; cultured with DEG for 7 days) was “increased glycolytic rate”. The “dependence on fatty acid, glucose and glutamine oxidation” value (CD8^+ T cells; fuel flex test, 500 µM DEG, 7 days) was “not more dependent”, the “capacity to oxidize fatty acids” value (CD8^+ T cells; [1]) was “increased capacity” and the “capacity to oxidize glucose” value (CD8^+ T cells; [1]) was “increased capacity”. For the same compound, the “time of conversion of DEG to glutarate intracellularly” value (human CD8^+ T cells) was at most 15 min, the “increase of measured intracellular glutarate concentrations” value (human CD8^+ T cells; 500 µM DEG, 7 days) was “approximately twofold” and the “intracellular DEG” value (human CD8^+ T cells; 15 min after administration of the labelled compound) was “could not be detected”. The “conversion of DEG into intracellular glutarate after uptake” value (human CD8^+ T cells; ^13C5-labelled DEG) was “very rapidly converted into intracellular glutarate”.
